Publication PMC4965013, “Open Source Drug Discovery with the Malaria Box Compound Collection for Neglected Diseases and Beyond” (PLoS Pathogens, 2016)
pEC50: −log10 of the molar value. Like-named read-outs stand apart in the source and are kept apart here.

Columns and labels:
[1] = system: P. falciparum Dd2; assay: P. falciparum Dd2 asexual blood stages Scynexis; format: cell-based; conditions: Plasmodium falciparum
[2] = system: P. falciparum 3D7, HB3, Dd2, W2, K1, FCR3; assay: Asexual EC50 image assay, six strains, Ayong; format: cell-based; conditions: Plasmodium falciparum
[3] = system: P. falciparum 3D7 gametocytes stage IV-V; assay: Gametocyte pLDH assay UMIL; format: cell-based; conditions: Plasmodium falciparum, 3D7, 72 h
Method: Columns BO-BR: Taramelli group (Columns BO-BP data presented first in this paper, Columns BQ-BR are new data except as noted below). Gametocytocidal activity at UMIL. The Malaria Box compounds were used for primary screening against P. falciparum 3D7 gametocytes and subsequently for IC50 determination against Pf gametocytes obtained from the 3D7 and the 3D7elo1-pfs16-CBG99 transgenic strain [74], as previously described. The primary screening was performed on stage IV-V gametocytes from the 3D7 strain at 3.7 µM, in 96 well plates, using 100 nM epoxomicin and 1 µM DHA as positive controls and 0.5% DMSO as negative untreated control. […] The dose-response experiments were performed in 96 well plates using the 3D7 strain (pLDH, 72+72h, column BR in heat map) and the 3D7elo1-pfs16-CBG99 (luciferase assay, 72h, column BQ in heat map). Data analysis was performed as described.

[4] = system: Leishmania donovani axenic amastigotes; assay: L. donovani axenic amastigotes Scynexis; format: cell-based
[5] = system: Trypanosoma cruzi; assay: T. cruzi Scynexis; format: cell-based
[6] = system: Saccharomyces cerevisiae ABC16-Monster; assay: S. cerevisiae ABC16-Monster growth inhibition; format: cell-based; conditions: ABC16MONSTER, read-out: S. cerevisiae strain ABC16-Monster in YPD % inhibition
Method: Column EA: Suzuki group (data presented first in this paper). Screening of MMV compounds for Saccharomyces cerevisiae ABC16-Monster growth inhibition. Methods: Compounds were added at 100 micromolar to YPD medium (1% yeast extract, 2% peptone, and 2% glucose). Only the solvent dimethyl sulfoxide (DMSO) without any MMV compound was added at 1% to the negative control. The initial density of ABC16-Monster cells corresponded to optical density at 600 nanometers (OD600) of 0.01. Cells were cultured without agitation in a 96-well plate at 30 degrees Celsius for 18 hours and then resuspended for measurement of OD600. For each compound, two cultures were conducted and examined. The average OD600 value was used. To calculate percent inhibition, OD600 for cells cultured with a compound was divided by OD600 for the negative control. The ABC16-Monster yeast strain was previously described.

[7] = system: zebrafish embryos; assay: Zebrafish embryo toxicity, mortality, behaviour; format: in vivo; conditions: 10µM
Method: Columns FE-FG: BIOBIDE group (data presented first in this paper). Zebrafish embryo toxicity, mortality, and behaviour change. 3 days post fertilization (dPf) zebrafish embryos from AB strain (wild type) were used for in vivo toxicity and behavioural screening. […] Then, embryos were incubated with each compound at 10 µM (1% DMSO) in E3 buffered with HEPES at 10 mM for 48 hours in 24 well plates, 5 embryos per well, 3 wells per condition (n=15). A group treated only with the vehicle was included in each plate as negative control. Afterwards, mortality and morphological alterations were assessed. Toxicity: When an altered phenotype (mortality, developmental abnormalities) appeared in more than 20% of cases it was considered toxic. […] For this purpose, 5dPf larvae (treated and negative controls) were transferred from 24-well treatment plate to 96-well plate, one embryo per well. 96-well plate was introduced in DanioVision system powered by Ethovision (Noldus). The behaviour was evaluated recording a total of 40 minutes in a round of 10 minutes under light and 10 minutes in darkness repeated twice. As activity is expected to differ under light and dark periods, the analysis was performed for each one of the 10 minutes phases. The differences between treated and controls for each parameter (distance, velocity) and phase was considered significant if p value is less than 0.005 (scored y for yes in HeatMap). Also, the p values between 0.01 and 0.005 were taken into account as an indicator of tendency (scored m for maybe in heat map). The toxic character of a compound was determined by the consistent differences (in both dark and light periods) between treated embryos and controls. […] If consistent results could not be obtained, the compound was scored i for indeterminate.

[8] = Plasma protein binding human; format: in vitro ADME
Method: Columns GD-GJ: Wuxi Inc. data for MMV (data presented first in this paper) PK/DMPK Parameters: Fasted animals (Male CD-1 mouse, 7-9 weeks age, 30±10 g, n=3) obtained from an approved vendor (SLAC Laboratory Animal Co. Ltd., Shanghai, China or Sino-British SIPPR/BK Laboratory Animal Co. Ltd Shanghai, China) were administered with a single oral dose (140 μmol/kg) using DMSO: 1% HPMC (5:95) as a vehicle. Blood sampling was performed via the submandibular or saphenous vein (t=0.083, 0.25, 1, 2, 4, 6 and 9 h) and transferred into microcentrifuge tubes containing Sodium Heparin (1,000 IU/ml) as anti-coagulant placed on wet ice until processed for plasma by centrifugation at approximately 4°C, 3000×g for 15 min. Plasma samples were stored in polypropylene tubes, quick frozen over dry ice and kept at -70±10°C until LC/MS/MS analysis. LC/MS/MS methods for the quantitative determination compounds plasma levels were developed with an internal standard. […] (Phoenix WinNonlin, version 6.2.1, Pharsight, Mountain View, CA) and expressed as Cmax & AUC0-last. […] AUC0-last is the area under the curve expressed as >12 h*μM (Yes or No). Plasma protein binding assay (PPB) (CD-1 mouse and human) expressed as <95% bound, >95% bound, or >99% bound. Kinetic Solubility at pH 7.4 was determined by liquid chromatography/chemiluminescence nitrogen detection (LC/CLND) and was scored as greater than 20µM (Yes or No). hERG inhibition was measured at 11µM by the QPatch- HT system and is expressed as “Yes” if greater than 45% inhibited at 11µM and “No” if less than or equal to 45% inhibited at 11µM. As part of the Drug-Drug Interaction studies (DDI issues), 5 human and 1 mouse CYP isoforms (1A2, 2C9, 2C19, 2D6, 3A4-M, 3A4-T) were tested for inhibition assay at 10 µM. […] Otherwise DDI issues were scored as “No”. Positive and negative controls were run for each assay (Table 1).

[9] = system: Schistosoma mansoni schistosomula (somules); assay: S. mansoni somules phenotypic screen Caffrey
[10] = system: P. falciparum HB3; assay: Stage-specificity / mitochondrial integrity image assay Ayong; format: cell-based; conditions: 10µM
[11] = read-out: P. falciparum Dd2 asexual blood stage EC50 (Image) Ayong
[12] = 3.7 µM, read-out: gametocytes 3D7, stage IV-V, pLDH, 72+72h, %inhibition
[13] = 3.7µM, read-out: gametocytes 3D7, stage IV-V, pLDH, 72h, %inhibition
[14] = read-out: P. falciparum 3D7 asexual blood stage EC50 (Image) Ayong
[15] = read-out: P. falciparum FCR3 asexual blood stage EC50 (Image) Ayong
[16] = read-out: P. falciparum HB3 asexual blood stage EC50 (Image) Ayong
[17] = read-out: P. falciparum K1 asexual blood stage EC50 (Image) Ayong
[18] = read-out: P. falciparum W2 asexual blood stage EC50 (Image) Ayong

| Structure (SMILES) | inhibition at 10 µM [1] | pEC50 [2, 11] | inhibition at 3.7 µM [3, 12] | inhibition at 3.7 µM [3, 13] | inhibition at 5 µM [4] | inhibition at 5 µM [5] | inhibition at 100 µM [6] | Zebrafish % mortality [7] | Zebrafish Toxicity (mortality and dev abnl) [7] | fraction unbound [8] | S. mansoni newly transformed schistosomula, visual tox scale, 0 = none, 4=most damaged ([9]; 24 h at 2.5µM) | S. mansoni newly transformed schistosomula, visual tox scale, 0 = none, 4=most damaged ([9]; 72 h at 2.5µM) | pEC50 [2, 14] | pEC50 [2, 15] | pEC50 [2, 16] | pEC50 [2, 17] | pEC50 [2, 18] | P. falciparum HB3 early ring (ER) stage activity [10] | P. falciparum HB3 late ring (LR) stage activity [10] | P. falciparum HB3 trophozoite (T) stage activity [10] |
| --- | --- | --- | --- | --- | --- | --- | --- | --- | --- | --- | --- | --- | --- | --- | --- | --- | --- | --- | --- | --- |
| CCOC(=O)c1cnc2ccc(OC)cc2c1NCc1ccccc1 [MMV665813] | 55% | 5.48 | 12% | 26% | 52% | -49% | -1.7% | 100% | y (altered phenotype (mortality, developmental abnormalities) appeared in more than 20% of cases it was considered toxic) | < 0.01 | 1 | 1 |  |  |  |  |  |  |  |  |
| CCN1CCN(c2cc(C)c3cc(NC(=O)c4ccc(OC)c(OC)c4)ccc3n2)CC1 [MMV019074] | 80% | 5.90 | 13% | 10% | -34% | 13% | 3.48% | 0% | y (altered phenotype (mortality, developmental abnormalities) appeared in more than 20% of cases it was considered toxic) | > 0.05 | 1 | 0 | 6.04 | 5.58 | 5.82 | 5.88 | 5.53 | ✖ | ✖ |  |
| CCN(CC)c1cc(C)c2cc(NC(=O)c3cccc(OC)c3)ccc2n1 [MMV000498] | 8% | 5.61 | 11% | 5% | -65% | 98% | -6% | 0% |  | < 0.01 | 2 | 0 | 5.74 | 5.34 | 5.55 | 5.45 | 5.56 | ✖ | ✖ | ✖ |
| COc1ccc(C(=O)Nc2ccc3nc(N4CCCCC4)cc(C)c3c2)cc1OC [MMV019758] | 36% | 5.48 | 11% | 12% | -50% | 71% | -8% | 13% | y (altered phenotype (mortality, developmental abnormalities) appeared in more than 20% of cases it was considered toxic) | < 0.01 | 0 | 0 | 5.80 |  | 5.46 |  | 5.35 |  | ✖ |  |
| COc1cc2cc(C(=O)Nc3ccccc3)c(N)nc2cc1OC [MMV006767] | 40% | 6.45 | 2.43% | 10% | -49% | 86% | 24% | 0% | y (altered phenotype (mortality, developmental abnormalities) appeared in more than 20% of cases it was considered toxic) | > 0.05 | 0 | 2 | 6.23 | 6.03 | 6.09 | 5.83 | 6.10 |  | T,S | ✖ |
